Data from ChEMBL document CHEMBL4038292 (Bioorg Med Chem Lett, 2017).
Active and inactive are the calls of the source. The rule behind the calls is not given here.

Assays:
Mus musculus [1] = experiment: Antinociceptive activity in mouse model of thermal-induced nociception assessed as increase in latency to tail withdrawal at 10 nmol/kg, icv measured up to 50 mins by tail flick test; format: functional
[2] = Half life in Kunming mouse plasma at 500 uM by RP-HPLC method; format: ADME, cell-free
Mus musculus [3] = experiment: Antinociceptive activity in mouse model of thermal-induced nociception assessed as increase in latency to tail withdrawal at 5 mg/kg, sc measured up to 50 mins by tail flick test; format: functional, organism-based
Rattus norvegicus = species on record: Rattus norvegicus; experiment: Selectivity ratio of Ki for displacement of [3H]DPDPE from delta-opioid receptor in Wistar rat membrane to Ki for displacement of [3H]DAMGO from mu-opioid receptor in Wistar rat brain membrane; format: cell membranes
Mu-type opioid receptor = Mu-type opioid receptor (Rattus norvegicus, UniProt P33535); experiment: Displacement of [3H]DAMGO from mu-opioid receptor in Wistar rat brain membrane after 1 hr by microbeta scintillation counting method; format: cell membranes
[4] = target: Delta-type opioid receptor (Rattus norvegicus, UniProt P33533); experiment: Displacement of [3H]DPDPE from delta-opioid receptor in Wistar rat brain membrane after 3 hrs by microbeta scintillation counting method; format: cell membranes
[5] = Half life in Kunming mouse brain homogenate at 500 uM by RP-HPLC method; format: ADME, tissue-based
[6] = Effect on human sperm motility at 10^-6 mol/L measured at 60 mins post dose by Makler counting chamber method (reference value: 64.8 +/- 6.6%); format: ADME, cell-based; details: 1 h, 1 µM
[7] = Effect on human sperm motility at 10^-5 mol/L measured at 10 mins post dose by Makler counting chamber method (reference value: 69 +/- 4.7%); format: ADME, cell-based; details: 10 µM
[8] = Effect on human sperm motility at 10^-7 mol/L measured at 30 mins post dose by Makler counting chamber method (reference value: 66.9 +/- 4.6%); format: ADME, cell-based; details: 0.5 h, 0.1 µM
[9] = Effect on human sperm motility at 10^-5 mol/L measured immediately post dose by Makler counting chamber method (reference value: 70 +/- 4.2%); format: ADME, cell-based; details: 10 µM
[10] = Effect on human sperm motility at 10^-5 mol/L measured at 90 mins post dose by Makler counting chamber method (reference value: 62.1 +/- 5.7%); format: ADME, cell-based; details: 1.5 h, 10 µM
[11] = Effect on human sperm motility at 10^-7 mol/L measured at 90 mins post dose by Makler counting chamber method (reference value: 62.1 +/- 5.7%); format: ADME, cell-based; details: 1.5 h, 0.1 µM
[12] = Effect on human sperm motility at 10^-6 mol/L measured immediately post dose by Makler counting chamber method (reference value: 70 +/- 4.2%); format: ADME, cell-based; details: 1 µM
[13] = Effect on human sperm motility at 10^-7 mol/L measured at 10 mins post dose by Makler counting chamber method (reference value: 69 +/- 4.7%); format: ADME, cell-based; details: 0.1 µM
[14] = Effect on human sperm motility at 10^-7 mol/L measured immediately post dose by Makler counting chamber method (reference value: 70 +/- 4.2%); format: ADME, cell-based; details: 0.1 µM
[15] = Effect on human sperm motility at 10^-6 mol/L measured at 90 mins post dose by Makler counting chamber method (reference value: 62.1 +/- 5.7%); format: ADME, cell-based; details: 1.5 h, 1 µM
[16] = Effect on human sperm motility at 10^-6 mol/L measured at 30 mins post dose by Makler counting chamber method (reference value: 66.9 +/- 4.6%); format: ADME, cell-based; details: 0.5 h, 1 µM
[17] = Effect on human sperm motility at 10^-5 mol/L measured at 60 mins post dose by Makler counting chamber method (reference value: 64.8 +/- 6.6%); format: ADME, cell-based; details: 1 h, 10 µM
[18] = Effect on human sperm motility at 10^-7 mol/L measured at 60 mins post dose by Makler counting chamber method (reference value: 64.8 +/- 6.6%); format: ADME, cell-based; details: 1 h, 0.1 µM
[19] = Effect on human sperm motility at 10^-5 mol/L measured at 30 mins post dose by Makler counting chamber method (reference value: 66.9 +/- 4.6%); format: ADME, cell-based; details: 0.5 h, 10 µM
[20] = Effect on human sperm motility at 10^-6 mol/L measured at 10 mins post dose by Makler counting chamber method (reference value: 69 +/- 4.7%); format: ADME, cell-based; details: 1 µM
Mus musculus [21] = experiment: Antinociceptive activity in mouse model of thermal-induced nociception assessed as increase in latency to tail withdrawal at 5 mg/kg, sc measured up to 90 mins by tail flick test; format: functional, organism-based
Mus musculus [22] = experiment: Antinociceptive activity in mouse model of thermal-induced nociception assessed as increase in latency to tail withdrawal at 10 nmol/kg, icv measured 10 to 80 mins post dose by tail flick test relative to control; format: functional
Mus musculus [23] = experiment: Antinociceptive activity in mouse model of thermal-induced nociception assessed as increase in latency to tail withdrawal at 10 mg/kg, sc measured up to 90 mins by tail flick test; format: functional, organism-based
Mus musculus [24] = experiment: Antinociceptive activity in mouse model of thermal-induced nociception assessed as increase in latency to tail withdrawal at 2.5 nmol/kg, icv measured up to 60 mins by tail flick test; format: functional
Mus musculus [25] = experiment: Antinociceptive activity in mouse model of thermal-induced nociception assessed as increase in latency to tail withdrawal at 10 nmol/kg, icv measured up to 60 mins by tail flick test; format: functional

Sequence of Mu-type opioid receptor (P33535 whole entry): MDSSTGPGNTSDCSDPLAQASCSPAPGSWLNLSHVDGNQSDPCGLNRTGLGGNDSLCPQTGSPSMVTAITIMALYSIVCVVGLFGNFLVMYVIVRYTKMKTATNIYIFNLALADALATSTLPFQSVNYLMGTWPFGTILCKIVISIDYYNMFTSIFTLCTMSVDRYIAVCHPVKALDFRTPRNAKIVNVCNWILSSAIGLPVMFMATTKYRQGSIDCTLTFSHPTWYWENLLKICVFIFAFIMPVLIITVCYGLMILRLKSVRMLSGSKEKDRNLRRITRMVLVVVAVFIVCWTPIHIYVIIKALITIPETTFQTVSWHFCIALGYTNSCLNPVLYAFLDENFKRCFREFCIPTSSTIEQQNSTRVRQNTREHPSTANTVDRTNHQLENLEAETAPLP
Sequence of Delta-type opioid receptor (P33533 whole entry): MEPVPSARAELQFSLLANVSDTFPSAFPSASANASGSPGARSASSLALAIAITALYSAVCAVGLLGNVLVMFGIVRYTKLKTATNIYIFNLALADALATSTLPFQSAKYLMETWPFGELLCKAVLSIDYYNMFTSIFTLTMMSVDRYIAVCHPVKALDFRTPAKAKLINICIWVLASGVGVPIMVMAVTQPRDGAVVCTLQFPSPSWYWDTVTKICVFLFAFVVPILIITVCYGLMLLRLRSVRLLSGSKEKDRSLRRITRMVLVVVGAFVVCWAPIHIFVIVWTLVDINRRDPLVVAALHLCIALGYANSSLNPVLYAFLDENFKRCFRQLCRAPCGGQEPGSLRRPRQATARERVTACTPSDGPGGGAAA

Structure (SMILES) | half-life at 500 µM [2] [h] | Activity (Mus musculus [3]) | Ratio Ki (Rattus norvegicus) | Ki (Mu-type opioid receptor) [µM] | Ki [4] [µM] | half-life at 500 µM [5] [h] | Activity [6] [%] | Activity [7] [%] | Activity [8] [%] | Activity [9] [%] | Activity [10] [%] | Activity [11] [%] | Activity [12] [%] | Activity [13] [%] | Activity [14] [%] | Activity [15] [%] | Activity [16] [%] | Activity [17] [%] | Activity [18] [%] | Activity [19] [%] | further results
C[C@@H](NC(=O)[C@@H](N)Cc1ccc(O)cc1)C(=O)NCC(=O)N[C@@H](Cc1ccccc1)C(N)=O | 4.38 | Active | 1800 | 0.00211 | 3.8 | 4.33 | – | – | – | – | – | – | – | – | – | – | – | – | – | – | Activity (Mus musculus [1]): Active
CN1CC[C@]23c4c5ccc(O)c4O[C@H]2[C@@H](O)C=C[C@H]3[C@H]1C5 [MORPHINE] | – | Active | – | – | – | – | 60.7 | 60.2 | 67 | 62.7 | 55.7 | 57.7 | 65.6 | 70.8 | 69.4 | 59.3 | 63 | 57.6 | 69 | 58.8 | Activity [20]: 62.7%
N=C(N)N[C@@H](Cc1ccc(O)cc1)C(=O)N1CCC[C@@H]1C(=O)NCC(=O)N[C@@H](Cc1ccccc1)C(N)=O | 3.68 | – | 18.4 | 0.247 | 4.55 | 4.94 | – | – | – | – | – | – | – | – | – | – | – | – | – | – | –
C[C@@H](NC(=O)[C@H](Cc1ccc(O)cc1)NC(=N)N)C(=O)NCC(=O)N[C@@H](Cc1ccc(Cl)cc1)C(N)=O | 3.91 | – | 288 | 0.00035 | 0.101 | 6.52 | 72 | 59.3 | 59 | 60.1 | 53.5 | 53.2 | 69.5 | 58.8 | 62.7 | 78.3 | 64.6 | 55.3 | 55.2 | 56.1 | Activity (Mus musculus [21]): Active; MPE (Mus musculus [22]): 90 - 100%; Activity (Mus musculus [23]): Active; Activity (Mus musculus [24]): Active; Activity [20]: 64.6%
C[C@@H](NC(=O)[C@H](Cc1ccc(O)cc1)NC(=N)N)C(=O)NCC(=O)N[C@@H](Cc1ccccc1)C(N)=O | 3.87 | – | 2000 | 0.00042 | 0.84 | 6.07 | 58 | 60.3 | 62.8 | 62.1 | 56.5 | 53.2 | 64.5 | 68.5 | 66.7 | 57.3 | 59.6 | 59 | 58.6 | 59.1 | Activity (Mus musculus [21]): Active; MPE (Mus musculus [22]): 90 - 100%; Activity (Mus musculus [23]): Active; Activity (Mus musculus [24]): Active; Activity [20]: 60.6%
C[C@@H](NC(=O)[C@@H](N)Cc1ccc(O)cc1)C(=O)NCC(=O)N[C@@H](Cc1ccc(Cl)cc1)C(N)=O | 3.99 | Active | – | 0.00124 | > 1 | 5.29 | – | – | – | – | – | – | – | – | – | – | – | – | – | – | Activity (Mus musculus [1]): Active
NC(=O)[C@H](Cc1ccccc1)NC(=O)[C@H](Cc1c[nH]c2ccccc12)NC(=O)[C@@H]1CCCN1C(=O)[C@@H](N)Cc1ccc(O)cc1 [ENDOMORPHIN-1] | 0.101 | – | – | – | – | 0.392 | – | – | – | – | – | – | – | – | – | – | – | – | – | – | Activity (Mus musculus [25]): Active
